The experiment has as its system CD8F1 mice, subcutaneous mammary adenocarcinoma, T/C%. As to the kind of experiment: NCI In Vivo Anticancer Drug Screen. Data for tumor model Mammary Adenocarcinoma CD8F1 (subcutaneous) in CD8F1. Conditions: higher = larger tumour. The method in brief:
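Antitumor activity is assessed in transplantable-tumor mice by comparing the treated group with a vehicle-treated control group. Survival or tumor size serves as the measure, reported as T divided by C.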

Structures are written as SMILES. “And” between values parts separate entries of the source, which are not always exact repeats. Equal entries are not always repeated. Records with an inconclusive call do not appear.

As to `[Cl][Sn]([c]1ccccc1)[c]1ccccc1`, the T/C was 81 % of control (endpoint: median tumor weight change, dose: 1.56 mg/kg/injection, schedule: Q01DX001 (ip), vehicle: saline); 63 % of control (endpoint: median tumor weight change, dose: 3.12 mg/kg/injection, schedule: Q01DX001 (ip), vehicle: saline); 94 % of control (endpoint: median tumor weight change, dose: 6.25 mg/kg/injection, schedule: Q01DX001 (ip), vehicle: saline); 81 % of control (endpoint: median tumor weight change, dose: 12.5 mg/kg/injection, schedule: Q01DX001 (ip), vehicle: saline); 78 % of control (endpoint: median tumor weight change, dose: 25.0 mg/kg/injection, schedule: Q01DX001 (ip), vehicle: saline); 47 % of control (endpoint: median tumor weight change, dose: 25.0 mg/kg/injection, schedule: Q01DX001 (ip), vehicle: water).

Consider `C[C@@](O)(/C=C/[C@H]1CC=CC(=O)O1)[C@@H](C[C@@H](O)\C=C/C=C\C=C\CO)OP(=O)(O)O`, for which the T/C is 99 % of control (endpoint: median tumor weight change, dose: 15.62 mg/kg/injection, schedule: Q01DX001 (ip), vehicle: other); 83 % of control (endpoint: median tumor weight change, dose: 31.25 mg/kg/injection, schedule: Q01DX001 (ip), vehicle: other); 42 % of control (endpoint: median tumor weight change, dose: 62.5 mg/kg/injection, schedule: Q01DX001 (ip), vehicle: other).

As for `CCCCC(=O)OCC(=O)[C@]1(O)Cc2c(O)c3c(c(O)c2[C@@H](OC2CC(NC(=O)C(F)(F)F)C(O)C(C)O2)C1)C(=O)c1c(OC)cccc1C3=O` (stereo not given in full), the T/C was 77 % of control (endpoint: median tumor weight (est.), dose: 8.0 mg/kg/injection, schedule: Q07DX005 (ip), vehicle: distilled water + Tween-80); 86 % of control (endpoint: median tumor weight (est.), dose: 16.0 mg/kg/injection, schedule: Q07DX005 (ip), vehicle: distilled water + Tween-80); 58 % of control (endpoint: median tumor weight (est.), dose: 32.0 mg/kg/injection, schedule: Q07DX005 (ip), vehicle: distilled water + Tween-80); 51 % of control (endpoint: median tumor weight (est.), dose: 44.0 mg/kg/injection, schedule: Q07DX004 (ip), vehicle: clinical formulation); 18 % of control (endpoint: median tumor weight (est.), dose: 64.0 mg/kg/injection, schedule: Q07DX005 (ip), vehicle: distilled water + Tween-80); 32 % of control (endpoint: median tumor weight (est.), dose: 67.0 mg/kg/injection, schedule: Q07DX004 (ip), vehicle: clinical formulation). The T/C reads like this: (endpoint: median tumor weight (est.), dose: 100.0 mg/kg/injection, schedule: Q07DX004 (ip), vehicle: clinical formulation) 10 % of control; (endpoint: median tumor weight (est.), dose: 128.0 mg/kg/injection, schedule: Q07DX005 (ip), vehicle: distilled water + Tween-80) 2 % of control; (endpoint: median tumor weight (est.), dose: 150.0 mg/kg/injection, schedule: Q07DX004 (ip), vehicle: clinical formulation) 3 % of control; (endpoint: median tumor weight change, dose: 90.0 mg/kg/injection, schedule: Q01DX001 (ip), vehicle: clinical formulation) 45 % of control.

As to `CC(=O)NNC(=O)c1ccccn1`, the T/C (endpoint: mean tumor weight, dose: 25.0 mg/kg/injection, schedule: Q01DX009 (ip), vehicle: saline) was 28 % of control; the T/C (endpoint: mean tumor weight, dose: 50.0 mg/kg/injection, schedule: Q07DX004 (ip), vehicle: saline) is 112 % of control; the T/C (endpoint: mean tumor weight, dose: 100.0 mg/kg/injection, schedule: Q01DX009 (ip), vehicle: saline) was 32 % of control; the T/C (endpoint: mean tumor weight, dose: 100.0 mg/kg/injection, schedule: Q07DX004 (ip), vehicle: saline) was 74 % of control; the T/C (endpoint: mean tumor weight, dose: 100.0 mg/kg/injection, schedule: Q07DX005 (ip), vehicle: saline) was 99 % of control; the T/C (endpoint: mean tumor weight, dose: 200.0 mg/kg/injection, schedule: Q07DX004 (ip), vehicle: saline) was 56 % of control. Besides, where the note is “endpoint: mean tumor weight, dose: 200.0 mg/kg/injection, schedule: Q07DX005 (ip), vehicle: saline”, the T/C was 82 % of control.

On to `O=C1C(O)=C(c2ccccc2)C(=O)C(O)=C1c1ccccc1`, for which the T/C is 105 % of control (endpoint: median tumor weight change, dose: 31.0 mg/kg/injection, schedule: Q01DX001 (ip), vehicle: saline with Tween-80); 58 % of control (endpoint: median tumor weight change, dose: 62.0 mg/kg/injection, schedule: Q01DX001 (ip), vehicle: saline with Tween-80); 104 % of control (endpoint: median tumor weight change, dose: 125.0 mg/kg/injection, schedule: Q01DX001 (ip), vehicle: saline with Tween-80).

As to `C=CC(C)(C)n1cc(C2=C(O)C(=O)C(c3cn(C(C)(C)C=C)c4ccccc34)=C(O)C2=O)c2ccccc21`, the T/C was 122 % of control (endpoint: median tumor weight (est.), dose: 2.5 mg/kg/injection, schedule: Q07DX005 (ip), vehicle: Klucel (hydroxypropylcellulose) (HPC)); 74 % of control (endpoint: median tumor weight (est.), dose: 5.0 mg/kg/injection, schedule: Q07DX005 (ip), vehicle: Klucel (hydroxypropylcellulose) (HPC)); 91 % of control (endpoint: median tumor weight (est.), dose: 10.0 mg/kg/injection, schedule: Q07DX005 (ip), vehicle: Klucel (hydroxypropylcellulose) (HPC)); 157 % of control (endpoint: median tumor weight (est.), dose: 20.0 mg/kg/injection, schedule: Q07DX005 (ip), vehicle: Klucel (hydroxypropylcellulose) (HPC)); 168 % of control (endpoint: median tumor weight (est.), dose: 40.0 mg/kg/injection, schedule: Q07DX005 (ip), vehicle: Klucel (hydroxypropylcellulose) (HPC)); 64 % of control (endpoint: median tumor weight change, dose: 1.25 mg/kg/injection, schedule: Q01DX001 (ip), vehicle: DMSO). The T/C was 77 % of control (endpoint: median tumor weight change, dose: 2.5 mg/kg/injection, schedule: Q01DX001 (ip), vehicle: DMSO); 86 % of control (endpoint: median tumor weight change, dose: 5.0 mg/kg/injection, schedule: Q01DX001 (ip), vehicle: DMSO); 110 % of control (endpoint: median tumor weight change, dose: 10.0 mg/kg/injection, schedule: Q01DX001 (ip), vehicle: DMSO).

`CCCCCCCCCCC(OC(C)=O)C1CCC(C2CCC(C(O)CCCCCCCCCCCCC3C=C(C)OC3=O)O2)O1` (stereo not given): the T/C is, setting by setting: (endpoint: median tumor weight change, dose: 1.25 mg/kg/injection, schedule: Q01DX001 (ip), vehicle: water) 111 % of control; (endpoint: median tumor weight change, dose: 10.0 mg/kg/injection, schedule: Q01DX001 (ip), vehicle: other) 76 % of control; (endpoint: median tumor weight change, dose: 10.0 mg/kg/injection, schedule: Q01DX001 (ip), vehicle: water) 164 % of control; (endpoint: median tumor weight change, dose: 20.0 mg/kg/injection, schedule: Q01DX001 (ip), vehicle: other) 41 % of control; (endpoint: median tumor weight change, dose: 40.0 mg/kg/injection, schedule: Q01DX001 (ip), vehicle: other) 38 % of control; (endpoint: median tumor weight change, dose: 80.0 mg/kg/injection, schedule: Q01DX001 (ip), vehicle: other) 38 % of control.

Consider `COc1cccc2c1C(=N)c1c(O)c3c(c(O)c1C2=O)C[C@@](O)(C(C)=O)C[C@@H]3OC1CC(N)C(O)C(C)O1` (stereo not given in full), for which the T/C by setting is: (endpoint: median tumor weight (est.), dose: 2.0 mg/kg/injection, schedule: Q07DX005 (ip), vehicle: saline) 53 % of control; (endpoint: median tumor weight (est.), dose: 2.97 mg/kg/injection, schedule: Q07DX005 (ip), vehicle: saline) 50 % of control; (endpoint: median tumor weight (est.), dose: 3.0 mg/kg/injection, schedule: Q07DX005 (ip), vehicle: saline) 115 % of control; (endpoint: median tumor weight (est.), dose: 4.45 mg/kg/injection, schedule: Q07DX005 (ip), vehicle: saline) 53 % of control; (endpoint: median tumor weight (est.), dose: 4.5 mg/kg/injection, schedule: Q07DX005 (ip), vehicle: saline) 96 % of control.

`CCOC(=O)c1ccc(NN=NCCF)cc1`: the T/C (endpoint: median tumor weight change, dose: 15.6 mg/kg/injection, schedule: Q01DX001 (ip), vehicle: distilled water + Tween-80) was 80 % of control; the T/C (endpoint: median tumor weight change, dose: 31.25 mg/kg/injection, schedule: Q01DX001 (ip), vehicle: distilled water + Tween-80) is 65 % of control; the T/C (endpoint: median tumor weight change, dose: 62.5 mg/kg/injection, schedule: Q01DX001 (ip), vehicle: distilled water + Tween-80) is 114 % of control; the T/C (endpoint: median tumor weight change, dose: 125.0 mg/kg/injection, schedule: Q01DX001 (ip), vehicle: distilled water + Tween-80) was 56 % of control.

`Cc1cc(=NO)cc(C)n1O`: the T/C is 52 % of control and 77 % of control (endpoint: median tumor weight change, dose: 125.0 mg/kg/injection, schedule: Q01DX001 (ip), vehicle: distilled water + alcohol); 78 % of control and 80 % of control (endpoint: median tumor weight change, dose: 250.0 mg/kg/injection, schedule: Q01DX001 (ip), vehicle: distilled water + alcohol); 69 % of control and 78 % of control (endpoint: median tumor weight change, dose: 500.0 mg/kg/injection, schedule: Q01DX001 (ip), vehicle: distilled water + alcohol).

For `O=c1c(O)c(-c2ccc(O)c(O)c2)oc2cc(O)cc(O)c12`, the T/C (endpoint: median tumor weight (est.), dose: 25.0 mg/kg/injection, schedule: Q07DX005 (ip), vehicle: other) was 52 % of control; the T/C (endpoint: median tumor weight (est.), dose: 50.0 mg/kg/injection, schedule: Q07DX005 (ip), vehicle: other) is 114 % of control; the T/C (endpoint: median tumor weight (est.), dose: 100.0 mg/kg/injection, schedule: Q07DX005 (ip), vehicle: other) was 98 % of control; the T/C (endpoint: median tumor weight (est.), dose: 400.0 mg/kg/injection, schedule: Q07DX005 (ip), vehicle: other) was 49 % of control.

Source of the values: PubChem BioAssay AID220 (DTP/NCI, 2004).
